Here are results for four molecules from PMC6271338, “Synthesis and Cytotoxic Evaluation of Alkoxylated Chalcones” (Molecules, 2014).

Several values for one entry are separate records, joined by “and”; a condition that tells them apart may be missing. Identical values can stand only once. Bounds are passed on as bounds.

Data set [1] relates to HeLa cells. The data set can be described thus: In vitro anti-proliferative SRB assay, HeLa. In kind it is cell-based, human. The note with it: for IC50: Homo sapiens, HeLa, increasing concentrations up to 30 μM, mean ± SD of at least three independent experiments; for SI (CC50 HMLE/IC50 Hela) / SI (CC50 L02/IC50 Hela): selectivity index; for SI (CC50 HMLE/IC50 Hela): HMLE vs HeLa; for SI (CC50 L02/IC50 Hela): L02 vs HeLa. (In general: In SRB staining, fixed cells bind dye roughly in proportion to their protein.)

Data set [2] has as its system L02 (a human liver cell line). The data set can be described thus: Cytotoxicity (SRB) against non-tumoral L02 cells. As to conditions: L02 versus the five tumoral cell lines. In kind it is cell-based.
Data set [3] is described as follows: Cytotoxicity (SRB) against non-tumoral L02 cells. In kind it is cell-based, human. As to conditions: human, L02 cells (non-tumoral human liver cell line); increasing concentrations up to 100 μM; mean ± SD of at least three independent experiments; read-out: Normal Human Cell Lines, CC50, L02.
Data set [4] relates to MCF-7 cells. The data set can be described thus: In vitro anti-proliferative SRB assay, MCF-7. It counts as cell-based, human. The note with it: for IC50: Homo sapiens, MCF7, increasing concentrations up to 30 μM, mean ± SD of at least three independent experiments; for SI (CC50 HMLE/IC50 MCF7) / SI (CC50 L02/IC50 MCF7): selectivity index; for SI (CC50 HMLE/IC50 MCF7): HMLE vs MCF7; for SI (CC50 L02/IC50 MCF7): L02 vs MCF7.

Data set [5] deals with A549 cells. The data set can be described thus: In vitro anti-proliferative SRB assay, A549. It counts as cell-based, human. The note with it: for IC50: Homo sapiens, A549, increasing concentrations up to 30 μM, mean ± SD of at least three independent experiments; for SI (CC50 HMLE/IC50 A549) / SI (CC50 L02/IC50 A549): selectivity index; for SI (CC50 HMLE/IC50 A549): HMLE vs A549; for SI (CC50 L02/IC50 A549): L02 vs A549.

For data set [6], the system named is SW1990 cells. The experiment in a line: In vitro anti-proliferative SRB assay, SW1990. The note with it: for IC50: Homo sapiens, SW1990, increasing concentrations up to 30 μM, mean ± SD of at least three independent experiments; for SI (CC50 HMLE/IC50 SW1990) / SI (CC50 L02/IC50 SW1990): selectivity index; for SI (CC50 HMLE/IC50 SW1990): HMLE vs SW1990; for SI (CC50 L02/IC50 SW1990): L02 vs SW1990. It counts as cell-based, human.

The nature of data set [7]: Cytotoxicity (SRB) against non-tumoral HMLE cells. It counts as cell-based, human. As to conditions: human, HMLE cells (non-tumoral human mammary epithelial cells); increasing concentrations up to 100 μM; mean ± SD of at least three independent experiments; read-out: Normal Human Cell Lines, CC50, HMLE.
Data set [8] has as its system HepG2 cells. The data set can be described thus: In vitro anti-proliferative SRB assay, HepG2. In kind it is cell-based, human. As to conditions: for IC50: Homo sapiens, HepG2, increasing concentrations up to 30 μM, mean ± SD of at least three independent experiments; for SI (CC50 HMLE/IC50 HepG2) / SI (CC50 L02/IC50 HepG2): selectivity index; for SI (CC50 HMLE/IC50 HepG2): HMLE vs HepG2; for SI (CC50 L02/IC50 HepG2): L02 vs HepG2.

The subject of data set [9] is five human cancer cell lines (HepG2, HeLa, MCF-7, A549 and SW1990). The data set can be described thus: In vitro anti-proliferative SRB assay, summary statements over the five-line panel. In kind it is cell-based. How it is done:
With a aim of identifying potential anticancer agents with enhanced levels of activity, as well as verifying the conclusions provided above, we took a14 as a starting compound, and then designed and synthesized a series of chalcones b1–42 bearing methoxy groups at the 2' and 6'-positions of the B-ring, whilst varying the substituents on the A-ring. The cytotoxicities of the resulting chalcones were evaluated in vitro against five human cancer cell lines and other two non-tumoral cell lines, including HepG2, HeLa, MCF-7, A549, SW1990, HMLE and L02, and the results are shown in Table 2.
HepG2 and MCF7 cells were grown in the Eagle’s minimum essential medium with Earle’s balanced salts (MEM-EBSS) medium, HeLa, A549 and L02 cells were grown in Dulbecco’s Modified Eagle Media (DMEM), SW1990 cells were grown in RPMI-1640 medium, and HMLE cell were grown in DMEM/F-12 medium. The media were supplemented with 100 U/mL penicillin, […] streptomycin and 10% fetal bovine serum (FBS), and incubated at 37 °C in a humidified atmosphere containing 5% CO2.
Cells were seeded into 96-well plates (4000 cells/well) and incubated at 37 °C in a humidified 5% CO2 atmosphere. After 24 h, the cells were treated with different concentrations of the compounds for 48 h in triplicate to generate dose-response curves. Cell viability was evaluated using the sulforhodamine B (SRB) assay as previous described. […] Etoposide was used as the positive control.

Data set [10] deals with human mammary epithelial cell (HMLE). The data set can be described thus: Cytotoxicity (SRB) against non-tumoral HMLE cells. In kind it is cell-based. As to conditions: HMLE versus the five tumoral cell lines.
Setting [11] is: most of their in vitro IC50 values against the five human cancer lines.

Broadly, the IC50 is the concentration at which inhibition is half-maximal. Read a high IC50 as lower potency. As a reminder, the CC50 is the concentration at which the toxic effect on the cells reaches its halfway point. By melting point is commonly meant the temperature, or range, at which the solid turns liquid.

The molecule `COc1cccc(OC)c1/C=C/C(=O)c1cccc(Cl)c1` [b34, (E)-1-(3-Chlorophenyl)-3-(2,6-dimethoxyphenyl)prop-2-en-1-one] registered a melting point of 116.5 to 117.2 °C. In addition, in data set [1], the midpoint of inhibition, the IC50, lay at 16.6 µM; the “SI (CC50 HMLE/IC50 Hela)” value was found to be 0.6; the “SI (CC50 L02/IC50 Hela)” value is given as 2.8. Further, the “SI between the CC50 in L02 and IC50 in tumoral cells” value in data set [2] is given as “more than 2 fold”. The cytotoxic concentration (CC50) at 48 h in [3] stood at 46.9 ± 13.9 µM. Further, in [4], the IC50 came to 22 µM, the “SI (CC50 HMLE/IC50 MCF7)” value is reported as 0.4 and the “SI (CC50 L02/IC50 MCF7)” value turned out to be 2.1. In data set [5], 16.1 µM corresponded to half-maximal inhibition (IC50), the “SI (CC50 HMLE/IC50 A549)” value was found to be 0.6 and the “SI (CC50 L02/IC50 A549)” value was 2.9. Also, in data set [6], half-maximal inhibition (IC50) required 21.4 µM, the “SI (CC50 HMLE/IC50 SW1990)” value was determined as 0.4 and the “SI (CC50 L02/IC50 SW1990)” value is 2.2. In addition, the CC50 at 48 h in [7] amounted to 9.42 ± 1.21 µM. In data set [8], it took 13.5 µM to reach half-maximal inhibition (IC50), the “SI (CC50 HMLE/IC50 HepG2)” value is listed as 0.7 and the “SI (CC50 L02/IC50 HepG2)” value was found to be 3.5.
In turn, `COc1cccc(OC)c1/C=C/C(=O)c1ccccc1OCc1ccccc1` [b11, (E)-1-(2-(Benzyloxy>)phenyl)-3-(2,6-dimethoxyphenyl)prop-2-en-1-one] returned a melting point of 94.6 to 97.9 °C. This molecule showed an IC50 in data set [9] (setting [11]) below 10 µM. In data set [1], the 50% inhibitory concentration (IC50) was determined as 3.62 ± 0.07 µM, the “SI (CC50 HMLE/IC50 Hela)” value came to 5.8 and the “SI (CC50 L02/IC50 Hela)” value stood at 10.6. The half-maximal cytotoxic concentration (CC50) at 48 h in data set [3] turned out to be 38.3 ± 5.63 µM. Moreover, in data set [4], the half-maximal inhibitory concentration (IC50) turned out to be 4.15 ± 0.2 µM, the “SI (CC50 HMLE/IC50 MCF7)” value came out at 5.1 and the “SI (CC50 L02/IC50 MCF7)” value turned out to be 9.2. In data set [5], the 50% inhibitory concentration (IC50) turned out to be 3.63 ± 0.13 µM, the “SI (CC50 HMLE/IC50 A549)” value was determined as 5.8 and the “SI (CC50 L02/IC50 A549)” value was found to be 10.5. In data set [6], the half-maximal inhibitory concentration (IC50) worked out at 7.43 ± 0.56 µM, the “SI (CC50 HMLE/IC50 SW1990)” value amounted to 2.8 and the “SI (CC50 L02/IC50 SW1990)” value worked out at 5.2. Further, the “SI between the CC50 in HMLE and IC50 in tumoral cells” value in data set [10] is reported as 2–7 fold. Further, in [7], the CC50 at 48 h was determined as 21 ± 1.26 µM. Moreover, in [8], half-maximal inhibition (IC50) required 2.76 ± 0.04 µM, the “SI (CC50 HMLE/IC50 HepG2)” value was found to be 7.6 and the “SI (CC50 L02/IC50 HepG2)” value was found to be 13.9.
On to `COc1cccc(OC)c1/C=C/C(=O)c1cccc(C(F)(F)F)c1` [b41, (E)-1-(3-(Trifluoromethyl)phenyl)-3-(2,6-dimethoxyphenyl)prop-2-en-1-one], for which the melting point lay within 145.3 to 146.7 °C. This molecule also displayed an IC50 in data set [9] (Homo sapiens, nearly all of the IC50 values) above 30 µM. Moreover, in data set [1], the half-inhibitory concentration (IC50) was found to be 29.1 ± 3.06 µM, the “SI (CC50 HMLE/IC50 Hela)” value is on record as above 3.4 and the “SI (CC50 L02/IC50 Hela)” value is on record as above 3.4. Moreover, in data set [3], the CC50 at 48 h is above 100 µM. In data set [4], this molecule showed an IC50 above 30 µM. Moreover, in data set [5], the IC50 was above 30 µM. This molecule also returned a half-maximal inhibitory concentration (IC50) in data set [6] above 30 µM. For the same molecule, in [7], the CC50 at 48 h is above 100 µM. For the same molecule, in data set [8], the IC50 was determined as 24.4 ± 5.87 µM, the “SI (CC50 HMLE/IC50 HepG2)” value was above 4.1 and the “SI (CC50 L02/IC50 HepG2)” value is on record as above 4.1.
For the molecule `COc1cc(C(=O)/C=C/c2c(OC)cccc2OC)ccc1O` [b29, (E)-1-(4-Hydroxy-3-methoxyphenyl)-3-(2,6-dimethoxyphenyl)prop-2-en-1-one], the melting point was in the range of 128.7 to 131.2 °C. Further, the concentration for half-maximal inhibition (IC50) in [9] (setting [11]) is below 10 µM. In [1], the IC50 amounted to 1.83 ± 0.08 µM, the “SI (CC50 HMLE/IC50 Hela)” value came out at 3.4 and the “SI (CC50 L02/IC50 Hela)” value was above 54.6. Also, the cytotoxic concentration (CC50) at 48 h in data set [3] is above 100 µM. Also, in data set [4], the IC50 was 1.79 ± 0.2 µM, the “SI (CC50 HMLE/IC50 MCF7)” value came to 3.5 and the “SI (CC50 L02/IC50 MCF7)” value is reported as above 55.9. Further, the “fold more potent than etoposide” value in [5] (A549 cells, ratio of IC50 values versus etoposide) stood at 11.5 fold. For the same molecule, in [5], the IC50 is 1.5 ± 0.07 µM, the “SI (CC50 HMLE/IC50 A549)” value came out at 4.2 and the “SI (CC50 L02/IC50 A549)” value was above 66.7. In addition, in [6], inhibition was half-maximal at 3.03 ± 0.05 µM (IC50), the “SI (CC50 HMLE/IC50 SW1990)” value is listed as 2.1 and the “SI (CC50 L02/IC50 SW1990)” value is on record as above 33.0. Besides, the “SI between the CC50 in HMLE and IC50 in tumoral cells” value in data set [10] was 2–7 fold and 2.1–6.5 fold. In data set [7], the half-maximal cytotoxic concentration (CC50) at 48 h came out at 6.31 ± 0.13 µM. In addition, in data set [8], the IC50 was 0.97 ± 0.04 µM, the “SI (CC50 HMLE/IC50 HepG2)” value came to 6.5 and the “SI (CC50 L02/IC50 HepG2)” value is above 103.1.
